Our source for the MIC values is DBAASP.

SMILES strings stand for the structures. ≈ marks a conversion by molar mass, not a printed value. Where “and” joins values, the source holds several entries; their conditions need not be identical. Identical values can stand only once.

Some test systems named below: Escherichia coli K-12; Staphylococcus aureus; Aureobasidium pullulans.
What all share (assay): ≥ marks a high value that may be exact or a test limit, other limits are often not marked, values filed in µg/mL are converted to µM
Assay [1] deals with Acinetobacter baumannii 7226/16.
Assay [2] has as its system Klebsiella pneumoniae ESBL 344/17.
In assay [3] the test system is Pseudomonas aeruginosa 522/17.
Assay [4] concerns Staphylococcus aureus 1399/17.
The subject of assay [5] is Staphylococcus aureus ATCC 33591.
The subject of assay [6] is Staphylococcus aureus SG511.
Assay [7] deals with Candida albicans NCYC 1467.
Assay [8] relates to Enterococcus faecalis NCTC 12697.
Assay [9] relates to Escherichia coli NCTC 10418.
The subject of assay [10] is Klebsiella pneumoniae ATCC 43816.
The test system of assay [11] is Pseudomonas aeruginosa ATCC 27853.
Assay [12] deals with Staphylococcus aureus NCTC 10788.
Assay [13] relates to Staphylococcus aureus NCTC 12493.
Assay [14] relates to Pseudomonas aeruginosa PA214.
In assay [15] the test system is Pseudomonas aeruginosa PA287.
Assay [16] concerns Pseudomonas aeruginosa PAO1.
The test system of assay [17] is Candida albicans FRR 5580.
For assay [18], the system named is Pseudomonas aeruginosa ATCC 9027.
Assay [19] concerns Escherichia coli ATCC 25922.
The subject of assay [20] is Staphylococcus aureus ATCC 25923.
Assay [21] concerns Acinetobacter baumannii ATCC 19606.
Assay [22] deals with Candida albicans ATCC 90028.
For assay [23], the system named is Cryptococcus neoformans ATCC 208821.
In assay [24] the test system is Klebsiella pneumoniae ATCC 700603.
For assay [25], the system named is Staphylococcus aureus ATCC 43300.
For assay [26], the system named is Staphylococcus aureus SH1000.
The test system of assay [27] is Candida albicans ATCC 10231.
The subject of assay [28] is Corynebacterium glutamicum ATCC 13032.
The test system of assay [29] is Staphylococcus aureus ATCC 9144.

For the compound `CC[C@H](C)[C@H](NC(=O)[C@H](CCCN=C(N)N)NC(=O)[C@@H](NC(=O)[C@@H]1CCCN1C(=O)[C@@H]1CCCN1C(=O)[C@H](CCCN=C(N)N)NC(=O)[C@H](CCCN=C(N)N)NC(=O)[C@H](Cc1ccccc1)NC(=O)[C@@H]1CCCN1C(=O)[C@H](CC(C)C)NC(=O)[C@H](CCCN=C(N)N)NC(=O)[C@H](Cc1ccccc1)NC(=O)[C@H](CCCN=C(N)N)NC(=O)[C@H](CCCN=C(N)N)NC(=O)[C@H](Cc1ccccc1)NC(=O)[C@@H](N)CCCN=C(N)N)[C@@H](C)CC)C(=O)N[C@@H](Cc1cnc[nH]1)C(N)=O` [RFRRFRLPFRRPPIRIH], the MIC was 8 µM and 12.5 µM in assay [1]; 8 µM and 6.2 µM in [2]; 16 µM (≈ 37.1 µg/mL) in assay [3]; 4 µM and 6.2 µM in [4]; 8 µM (≈ 18.6 µg/mL) in assay [5]; 0.5 µM (≈ 1.16 µg/mL) in assay [6].
`CC[C@H](C)[C@@H]1NC(=O)[C@H](C)NC(=O)[C@@H](NC(=O)[C@H](Cc2ccccc2)NC(=O)[C@@H](NC(=O)[C@H](CCCCN)NC(=O)[C@@H]2CCCN2C(=O)[C@H](CC(C)C)NC(=O)[C@H](Cc2ccccc2)NC(=O)[C@H](CCCCN)NC(=O)[C@H](C)NC(=O)[C@H](C)NC(=O)[C@H](CC(C)C)NC(=O)CNC(=O)[C@H](C)NC(=O)[C@@H](NC(=O)[C@H](CC(C)C)NC(=O)[C@@H]2CCCN2C(=O)[C@H](CC(C)C)NC(=O)[C@@H](N)Cc2ccccc2)[C@@H](C)CC)[C@@H](C)CC)CSSC[C@@H](C(=O)O)NC(=O)[C@H](CCCCN)NC(=O)[C@H](CCCCN)NC(=O)[C@H]([C@@H](C)O)NC1=O` [FLPLIAGLAAKFLPKIFCAITKKC]: the MIC in assay [7] stood at 4 µM (≈ 10.4 µg/mL); in [8], 8 µM (≈ 20.8 µg/mL); in [9], 8 µM (≈ 20.8 µg/mL); in assay [10], 16 µM (≈ 41.7 µg/mL); in [11], 32 µM (≈ 83.4 µg/mL); in [12], 4 µM (≈ 10.4 µg/mL). Moreover, the MIC in assay [13] amounted to 16 µM (≈ 41.7 µg/mL).
Consider `C[C@H](NC(=O)[C@H](C)NC(=O)[C@H](Cc1ccccc1)NC(=O)[C@H](C)NC(=O)[C@H](CCCCN)NC(=O)[C@H](C)NC(=O)[C@H](Cc1c[nH]c2ccccc12)NC(=O)[C@H](C)NC(=O)[C@H](CCCCN)NC(=O)[C@H](C)NC(=O)[C@H](Cc1ccccc1)NC(=O)[C@H](C)NC(=O)[C@H](C)NC(=O)[C@H](CCCCN)NC(=O)[C@H](CCCCN)NC(=O)[C@H](CCCCN)NC(=O)[C@@H](N)CCCCN)C(N)=O` [KKKKAAFAKAWAKAFAA], for which the MIC with Escherichia coli K-12 was 12.5 µM (≈ 22.9 µg/mL); in [14] it was no less than 50 µM; in [15], no less than 50 µM; in [16], 50 µM (≈ 91.8 µg/mL).
For `NCCCC[C@H](NC(=O)[C@H](Cc1c[nH]c2ccccc12)NC(=O)[C@H](Cc1c[nH]c2ccccc12)NC(=O)[C@@H](N)CCCN=C(N)N)C(=O)N[C@@H](Cc1c[nH]c2ccccc12)C(=O)N[C@@H](Cc1c[nH]c2ccccc12)C(N)=O` [RWWKWW], the MIC in assay [17] was no less than 61.1 µM; in assay [18] it was 30.6 µM (≈ 32 µg/mL).
For `NCCCC[C@H](NC(=O)[C@H](Cc1c[nH]c2ccccc12)NC(=O)[C@H](Cc1c[nH]c2ccccc12)NC(=O)[C@H](CCCN=C(N)N)NC(=O)[C@H](Cc1c[nH]c2ccccc12)NC(=O)[C@@H](N)Cc1c[nH]c2ccccc12)C(=O)N[C@@H](Cc1c[nH]c2ccccc12)C(=O)N[C@@H](Cc1c[nH]c2ccccc12)C(N)=O` [WWRWWKWW], the MIC is no less than 45.1 µM in assay [17]; 5.64 µM (≈ 7.99 µg/mL) in [19]; 22.5 µM (≈ 32 µg/mL) in assay [18]; 5.64 µM (≈ 7.99 µg/mL) in assay [20]; 2.82 µM (≈ 4 µg/mL) in the assay with Staphylococcus aureus.
For the compound `CC(C)C[C@H](NC(=O)[C@H](C)NC(=O)CNC(=O)[C@H](CC(C)C)NC(=O)[C@H](CC(C)C)NC(=O)[C@H](CCCCN)NC(=O)[C@H](CCCCN)NC(=O)[C@H](CC(C)C)NC(=O)[C@H](CC(C)C)NC(=O)[C@H](CCCCN)NC(=O)[C@H](CC(C)C)NC(=O)[C@H](CC(C)C)NC(=O)[C@@H](N)CCCCN)C(=O)NCC(N)=O` [KLLKLLKKLLGALG], the MIC in assay [21] stood at 1 µM (≈ 1.51 µg/mL); in [22], 11 µM (≈ 16.6 µg/mL); in [23] it was 3 µM (≈ 4.52 µg/mL); in [19] it was 1 µM (≈ 1.51 µg/mL); in assay [24] it was 5 µM (≈ 7.54 µg/mL); in assay [11], 21 µM (≈ 31.6 µg/mL). The figures for the MIC in assay [25] and in [26] were 3 µM (≈ 4.52 µg/mL) and 10 µM (≈ 15.1 µg/mL), respectively.
Turning to `CC(C)C[C@H](NC(=O)[C@H](CCC(N)=O)NC(=O)[C@H](CCC(N)=O)NC(=O)[C@H](C)NC(=O)CNC(=O)[C@H](C)NC(=O)[C@H](CCCCN)NC(=O)CNC(=O)[C@@H](NC(=O)[C@H](CCC(N)=O)NC(=O)[C@H](CCCCN)NC(=O)[C@H](CCCCN)NC(=O)[C@H](CC(C)C)NC(=O)[C@H](Cc1ccc(O)cc1)NC(=O)[C@H](CCCCN)NC(=O)[C@H](C)NC(=O)CNC(=O)[C@H](C)NC(=O)[C@H](CCCCN)NC(=O)[C@H](Cc1ccccc1)NC(=O)[C@H](CC(C)C)NC(=O)[C@H](CO)NC(=O)[C@H](CO)NC(=O)[C@H](Cc1ccccc1)NC(=O)CN)C(C)C)C(N)=O` [GFSSLFKAGAKYLKKQVGKAGAQQL], the MIC in [7] was no less than 64 µM; in assay [8], 16 µM (≈ 42 µg/mL); in [9], 8 µM (≈ 21 µg/mL); in assay [10], no less than 128 µM; in assay [11], 16 µM (≈ 42 µg/mL); in [12] it was 16 µM (≈ 42 µg/mL). The compound further yielded an MIC in assay [13] of no less than 64 µM.
With `C[C@H](NC(=O)[C@H](C)NC(=O)[C@H](Cc1ccccc1)NC(=O)[C@H](C)NC(=O)[C@H](C)NC(=O)[C@H](Cc1c[nH]c2ccccc12)NC(=O)[C@H](C)NC(=O)[C@H](CCCCN)NC(=O)[C@H](C)NC(=O)[C@H](Cc1ccccc1)NC(=O)[C@H](C)NC(=O)[C@H](C)NC(=O)[C@H](CCCCN)NC(=O)[C@H](CCCCN)NC(=O)[C@H](CCCCN)NC(=O)[C@H](CCCCN)NC(=O)[C@@H](N)CCCCN)C(N)=O` [KKKKKAAFAKAWAAFAA], the MIC is 6.3 µM (≈ 11.6 µg/mL) against Escherichia coli K-12, 25 µM (≈ 45.9 µg/mL) in assay [14], no less than 50 µM in [15] and 25 µM (≈ 45.9 µg/mL) in [16].
As for `CC(C)[C@H](NC(=O)[C@H](CCCCN)NC(=O)[C@H](C)NC(=O)[C@@H](NC(=O)[C@@H](NC(=O)[C@H](CCCN=C(N)N)NC(=O)[C@H](C)NC(=O)[C@H](Cc1c[nH]c2ccccc12)NC(=O)[C@H](Cc1c[nH]c2ccccc12)NC(=O)CN)[C@@H](C)O)C(C)C)C(=O)N[C@@H](CCCN=C(N)N)C(=O)N[C@@H](CCCCN)C(N)=O` [GWWARTVAKVRK], the MIC is no less than 50 µM in the assay with Aureobasidium pullulans; 25 µM (≈ 36.4 µg/mL) in assay [27]; 1.6 µM (≈ 2.33 µg/mL) in assay [28]; 6.3 µM (≈ 9.18 µg/mL) in [19]; 12.5 µM (≈ 18.2 µg/mL) in [11]; no less than 50 µM in assay [29].
`CC[C@H](C)[C@H](NC(=O)[C@H](CCCCN)NC(=O)[C@H](CC(C)C)NC(=O)[C@H](CC(C)C)NC(=O)[C@@H](N)CCCCN)C(=O)N[C@H](C(=O)N[C@@H](CCCCN)C(=O)N[C@@H](CCCCN)C(=O)N[C@H](C(=O)N[C@H](C(=O)NCC(=O)N[C@@H](C)C(=O)N[C@@H](CC(C)C)C(=O)NCC(N)=O)C(C)C)C(C)C)C(C)C` [KLLKIVKKVVGALG]: the MIC in [26] is no less than 100 µM.
